# Laboratory results: the supplement of paper PMC10307832
# How the values were obtained:
# Assay in all cases: relative viability (nuclei count vs DMSO), 5 days (fraction); higher = more cells survive
# BX 795 = compound: O=C(NCCCNc1nc(Nc2cccc(NC(=O)N3CCCC3)c2)ncc1I)c1cccs1 [BX 795]
# How it was run: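 On vehicle-anchored 1536-well plates, lung cancer cell lines held overnight at 37 °C were pinned with five library-drug doses (not always all listed) spaced by √10. With no medium change over 5 days, they were then fixed, permeabilised and Hoechst-stained in one step and imaged at 4×. MetaXpress counted nuclei, and viability is the median across plates of treated-well over vehicle-well nuclei. Acceptance needed control CV below 25% and at least one doubling.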
# BX 795 + Crizotinib = compound: O=C(NCCCNc1nc(Nc2cccc(NC(=O)N3CCCC3)c2)ncc1I)c1cccs1 [BX 795] + C[C@@H](Oc1cc(-c2cnn(C3CCNCC3)c2)cnc1N)c1c(Cl)ccc(F)c1Cl [Crizotinib] (partner 1 µM)
# How it was run: (§1)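 Each reported value is a median over duplicate plates. It expresses relative viability: treated-well nuclei count divided by vehicle-well nuclei count. Lung cancer cell lines in 1536-well plates were dosed by pin tool a day after seeding, alone with one drug or with a fixed anchor-drug dose plus five library-drug doses (not always all listed) in √10 steps, and nuclei were counted after 5 days.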
# BX 795 + Alpelisib = compound: O=C(NCCCNc1nc(Nc2cccc(NC(=O)N3CCCC3)c2)ncc1I)c1cccs1 [BX 795] + Cc1nc(NC(=O)N2CCC[C@H]2C(N)=O)sc1-c1ccnc(C(C)(C)C(F)(F)F)c1 [Alpelisib] (partner 2 µM)
# How it was run: as §1
# BX 795 + Navitoclax = compound: O=C(NCCCNc1nc(Nc2cccc(NC(=O)N3CCCC3)c2)ncc1I)c1cccs1 [BX 795] + CC1(C)CCC(c2ccc(Cl)cc2)=C(CN2CCN(c3ccc(C(=O)NS(=O)(=O)c4ccc(N[C@H](CCN5CCOCC5)CSc5ccccc5)c(S(=O)(=O)C(F)(F)F)c4)cc3)CC2)C1 [Navitoclax] (partner 0.5 µM)
# How it was run: as §1
# BX 795 + AZD7762 = compound: O=C(NCCCNc1nc(Nc2cccc(NC(=O)N3CCCC3)c2)ncc1I)c1cccs1 [BX 795] + NC(=O)Nc1cc(-c2cccc(F)c2)sc1C(=O)N[C@H]1CCCNC1 [AZD7762] (partner 0.2 µM)
# How it was run: as §1
# BX 795 + Pictilisib = compound: O=C(NCCCNc1nc(Nc2cccc(NC(=O)N3CCCC3)c2)ncc1I)c1cccs1 [BX 795] + CS(=O)(=O)N1CCN(Cc2cc3nc(-c4cccc5[nH]ncc45)nc(N4CCOCC4)c3s2)CC1 [Pictilisib] (partner 1 µM)
# How it was run: as §1
# BX 795 + Olaparib = compound: O=C(NCCCNc1nc(Nc2cccc(NC(=O)N3CCCC3)c2)ncc1I)c1cccs1 [BX 795] + O=C(c1cc(Cc2n[nH]c(=O)c3ccccc23)ccc1F)N1CCN(C(=O)C2CC2)CC1 [Olaparib] (partner 8 µM)
# How it was run: as §1
# BX 795 + Linsitinib = compound: O=C(NCCCNc1nc(Nc2cccc(NC(=O)N3CCCC3)c2)ncc1I)c1cccs1 [BX 795] + C[C@]1(O)C[C@@H](c2nc(-c3ccc4ccc(-c5ccccc5)nc4c3)c3c(N)nccn32)C1 [Linsitinib] (partner 1 µM)
# How it was run: as §1
# BX 795 + Bortezomib = compound: O=C(NCCCNc1nc(Nc2cccc(NC(=O)N3CCCC3)c2)ncc1I)c1cccs1 [BX 795] + CC(C)C[C@H](NC(=O)[C@H](Cc1ccccc1)NC(=O)c1cnccn1)B(O)O [Bortezomib] (partner 0.002 µM)
# How it was run: as §1
# BX 795 + Foretinib = compound: O=C(NCCCNc1nc(Nc2cccc(NC(=O)N3CCCC3)c2)ncc1I)c1cccs1 [BX 795] + COc1cc2c(Oc3ccc(NC(=O)C4(C(=O)Nc5ccc(F)cc5)CC4)cc3F)ccnc2cc1OCCCN1CCOCC1 [Foretinib] (partner 0.25 µM)
# How it was run: as §1
# BX 795 + Lapatinib = compound: O=C(NCCCNc1nc(Nc2cccc(NC(=O)N3CCCC3)c2)ncc1I)c1cccs1 [BX 795] + CS(=O)(=O)CCNCc1ccc(-c2ccc3ncnc(Nc4ccc(OCc5cccc(F)c5)c(Cl)c4)c3c2)o1 [Lapatinib] (partner 2 µM)
# How it was run: as §1
cell line,measurement,setting,value
NCI-H1703,relative viability,BX 795; 0.04 µM,0.469
same,relative viability,BX 795; 0.1265 µM,0.806
same,relative viability,BX 795; 0.4 µM,0.236
same,relative viability,BX 795; 1.265 µM,0.298
same,relative viability,BX 795 + Crizotinib; first compound 0.04 µM,0.317
same,relative viability,BX 795 + Crizotinib; first compound 0.1265 µM,0.453
same,relative viability,BX 795 + Crizotinib; first compound 0.4 µM,0.148
same,relative viability,BX 795 + Crizotinib; first compound 1.265 µM,0.179
same,relative viability,BX 795 + Alpelisib; first compound 0.04 µM,0.211
same,relative viability,BX 795 + Alpelisib; first compound 0.1265 µM,0.286
same,relative viability,BX 795 + Alpelisib; first compound 0.4 µM,0.194
same,relative viability,BX 795 + Alpelisib; first compound 1.265 µM,0.204
same,relative viability,BX 795 + Navitoclax; first compound 0.04 µM,0.8
same,relative viability,BX 795 + Navitoclax; first compound 0.1265 µM,1
same,relative viability,BX 795 + Navitoclax; first compound 0.4 µM,0.22
same,relative viability,BX 795 + Navitoclax; first compound 1.265 µM,0.289
same,relative viability,BX 795 + AZD7762; first compound 0.04 µM,0.138
same,relative viability,BX 795 + AZD7762; first compound 0.1265 µM,0.115
same,relative viability,BX 795 + AZD7762; first compound 0.4 µM,0.148
same,relative viability,BX 795 + AZD7762; first compound 1.265 µM,0.156
same,relative viability,BX 795 + Pictilisib; first compound 0.1265 µM,0.201
same,relative viability,BX 795 + Pictilisib; first compound 0.4 µM,0.222
same,relative viability,BX 795 + Pictilisib; first compound 1.265 µM,0.185
same,relative viability,BX 795 + Olaparib; first compound 0.1265 µM,0.283
same,relative viability,BX 795 + Olaparib; first compound 0.4 µM,0.229
same,relative viability,BX 795 + Olaparib; first compound 1.265 µM,0.152
same,relative viability,BX 795 + Linsitinib; first compound 0.1265 µM,0.622
same,relative viability,BX 795 + Linsitinib; first compound 0.4 µM,0.185
same,relative viability,BX 795 + Linsitinib; first compound 1.265 µM,0.224
same,relative viability,BX 795 + Bortezomib; first compound 0.04 µM,0.272
same,relative viability,BX 795 + Bortezomib; first compound 0.1265 µM,0.223
same,relative viability,BX 795 + Bortezomib; first compound 0.4 µM,0.167
same,relative viability,BX 795 + Bortezomib; first compound 1.265 µM,0.159
same,relative viability,BX 795 + Foretinib; first compound 0.1265 µM,0.296
same,relative viability,BX 795 + Foretinib; first compound 0.4 µM,0.274
same,relative viability,BX 795 + Foretinib; first compound 1.265 µM,0.27
same,relative viability,BX 795 + Lapatinib; first compound 0.04 µM,0.729
same,relative viability,BX 795 + Lapatinib; first compound 0.1265 µM,1.11
same,relative viability,BX 795 + Lapatinib; first compound 0.4 µM,0.284
same,relative viability,BX 795 + Lapatinib; first compound 1.265 µM,0.243
